In assay [1] the target is T1, rat PAC1 receptor (Rattus norvegicus, UniProt P32215).
T1 construct: SHSY-5Y (human neuroblastoma cell line) and RG-2 (rat glioma cell line) cells endogenously express human and rat PAC1 receptors, respectively; endogenous in cells; host or cells: RG-2 rat glioma cells
T1 sequence (P32215 20-523): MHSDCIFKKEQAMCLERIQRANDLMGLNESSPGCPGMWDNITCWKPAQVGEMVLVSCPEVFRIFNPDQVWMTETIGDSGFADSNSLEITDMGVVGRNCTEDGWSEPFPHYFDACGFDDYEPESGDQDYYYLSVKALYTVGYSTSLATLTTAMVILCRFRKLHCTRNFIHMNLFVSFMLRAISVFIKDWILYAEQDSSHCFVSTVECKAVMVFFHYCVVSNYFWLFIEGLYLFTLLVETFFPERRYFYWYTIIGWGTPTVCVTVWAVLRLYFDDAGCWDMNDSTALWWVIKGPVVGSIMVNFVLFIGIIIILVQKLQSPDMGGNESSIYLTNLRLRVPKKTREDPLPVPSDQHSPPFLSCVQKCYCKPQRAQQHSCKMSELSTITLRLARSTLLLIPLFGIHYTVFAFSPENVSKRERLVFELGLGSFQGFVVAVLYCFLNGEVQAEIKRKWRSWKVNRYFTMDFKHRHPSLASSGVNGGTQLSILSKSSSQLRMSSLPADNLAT
As to the kind of experiment: LANCE Ultra cAMP accumulation antagonist assay in RG-2 cells.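 Note: RG-2 rat glioma cells endogenously expressing PAC1, test peptide preincubated 30 min, then PAC1 agonist added at its EC80 for 15 min, cAMP accumulation read by LANCE Ultra.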 The format is cell-based.

For assay [2], the target named is T2, human PAC1 receptor (Homo sapiens, UniProt P41586).
T2 construct: SHSY-5Y (human neuroblastoma cell line) and RG-2 (rat glioma cell line) cells endogenously express human and rat PAC1 receptors, respectively; endogenous in cells; host or cells: SHSY-5Y human neuroblastoma cells
T2 sequence (P41586 21-468): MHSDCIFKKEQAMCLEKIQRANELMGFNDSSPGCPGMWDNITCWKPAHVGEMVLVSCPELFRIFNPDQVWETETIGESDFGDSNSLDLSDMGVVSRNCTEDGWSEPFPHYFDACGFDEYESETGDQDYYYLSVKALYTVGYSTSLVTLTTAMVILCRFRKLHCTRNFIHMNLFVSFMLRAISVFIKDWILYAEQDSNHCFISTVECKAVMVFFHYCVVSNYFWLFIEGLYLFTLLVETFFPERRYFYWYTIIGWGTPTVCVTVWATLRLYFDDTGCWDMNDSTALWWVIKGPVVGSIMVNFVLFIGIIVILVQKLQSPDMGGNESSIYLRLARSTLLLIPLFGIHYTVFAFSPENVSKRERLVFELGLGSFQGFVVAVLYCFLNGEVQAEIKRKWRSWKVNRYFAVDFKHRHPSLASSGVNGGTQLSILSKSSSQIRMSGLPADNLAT
As to the kind of experiment: LANCE Ultra cAMP accumulation antagonist assay in SHSY-5Y cells.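 Note: inhibition of cAMP accumulation evoked by PAC1 agonist at its EC80 in SHSY-5Y cells endogenously expressing receptor, 30 min preincubation then 15 min agonist, TR-FRET readout.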 The format is cell-based. A general note: Time-resolved FRET reads energy transfer from a long-lived donor to a nearby acceptor.

Where a SMILES comes first, the peptide text is derived from it. Bridges are numbered along the chain shown (N, C = ends). Where no end group is shown, it is not given here. [ ]: non-standard residue; d: D form. SeMet = C[Se]CC[C@H](N)C(=O)O

By IC50 is commonly meant the concentration that gives 50% inhibition. A lower IC50 goes with higher potency.

With `CC[C@H](C)[C@H](NC(=O)[C@H](C)NC(=O)[C@H](CCCCN)NC(=O)[C@H](CCCNC(=N)N)NC(=O)[C@H](Cc1ccccc1)NC(=O)[C@H](CCC(N)=O)NC(=O)[C@@H]1CSSC[C@H](N)C(=O)N[C@@H](CC(=O)O)C(=O)N[C@@H](C)C(=O)N[C@@H]([C@@H](C)O)C(=O)N1)C(=O)N[C@@H](CC(=O)O)C(=O)N[C@@H](CC(=O)O)C(=O)N[C@H]1CSSC[C@@H](C(=O)N[C@@H](CC[Se]C)C(=O)N[C@@H](CCCCN)C(=O)N[C@@H](CCC(N)=O)C(=O)N[C@@H](CCCCN)C(=O)N[C@@H](CCCCN)C(=O)N[C@@H](CCCCN)C(=O)N[C@@H](CCC(=O)O)C(=O)N[C@@H](Cc2c[nH]c3ccccc23)C(=O)N[C@@H](CCCCN)C(=O)N[C@@H](C)C(=O)NCC(N)=O)NC(=O)[C@H](C)NC(=O)[C@H](CCCCN)NC(=O)[C@H](Cc2ccccc2)NC(=O)[C@H](C(C)C)NC(=O)[C@H](CO)NC(=O)[C@H](CO)NC(=O)[C@H](Cc2c[nH]cn2)NC(=O)[C@H](Cc2ccc(O)cc2)NC(=O)[C@H](C)NC(=O)[C@H](CCC(N)=O)NC(=O)[C@H](CCCNC(=N)N)NC(=O)[C@H](C)NC1=O` [compound 6] (H-CDATCQFRKAIDDCARQAYHSSVFKAC[SeMet]KQKKKEWKAG-NH2; disulfide 1-5, 14-27), the IC50 in assay [1] and in assay [2] was 0.01 to 1 nM throughout.

As to “CDATCQFRKAIDDCQKQAHHSNVPGSVFKACMKFRRTLWKAG-NH2 (disulfide 1-5, 14-31) [compound 89]”, the values for the IC50 in assay [1] and in assay [2] were 0.01 to 1 nM and 1 to 100 nM, respectively.

Regarding “CDATCQFRKAIDDCQKQAHHSNVPGSVFKACLVQKKKEFKAG-NH2 (disulfide 1-5, 14-31) [compound 101]”, the half-maximal inhibitory concentration (IC50) in assay [1] and in assay [2] was 1 to 100 nM each time.

Take “CDATCQFRKAIDDCQKQAHHSNVPGSVFKTCMKQKKKEFKAG-NH2 (disulfide 1-5, 14-31) [compound 146]”: the IC50 in assay [1] and in assay [2] was 0.01 to 1 nM in each case.

Take “CDATCQFRKAIDDCVRQAHHSNVPGSVFKACMKQKKKEWKAH (disulfide 1-5, 14-31) [compound 99]”: the IC50 in assay [1] and in assay [2] was 0.01 to 1 nM each time.

For “GCDATCQFRKAIDDCAKQAHHSNVPGSVFKACMKQKKKEFKAGH (disulfide 2-6, 15-32) [compound 59]”, the concentration for half-maximal inhibition (IC50) in assay [1] and in assay [2] was 0.01 to 1 nM in each case.

For the compound “CDATCQFRKAIDDCWKQAHHSNVPGSVFKACMKQKKKEFKAG-NH2 (disulfide 1-5, 14-31) [compound 80]”, the IC50 in assay [1] was under 0.01 nM; in assay [2], 0.01 to 1 nM.

As to “CDATCQFRKAIDDCARQAHHSNVPGSVWKACMKQKKKEWKAGH (disulfide 1-5, 14-31) [SEQ ID NO 105]”, the IC50 in assay [1] and in assay [2] was 0.01 to 1 nM throughout.

Regarding “CDATCQFRKAIDDCARQAHHSNVPGSVFKACLKQKKKEWKAGH (disulfide 1-5, 14-31) [compound 41]”, the IC50 in assay [1] and in assay [2] was 0.01 to 1 nM throughout.

As for `CC[C@H](C)[C@H](NC(=O)[C@H](C)NC(=O)[C@H](CCCCN)NC(=O)[C@H](CCCNC(=N)N)NC(=O)[C@H](Cc1ccccc1)NC(=O)[C@H](CCC(N)=O)NC(=O)[C@@H]1CSSC[C@H](N)C(=O)N[C@@H](CC(=O)O)C(=O)N[C@@H](C)C(=O)N[C@@H]([C@@H](C)O)C(=O)N1)C(=O)N[C@@H](CC(=O)O)C(=O)N[C@@H](CC(=O)O)C(=O)N[C@H]1CSSC[C@@H](C(=O)N[C@@H](CCSC)C(=O)N[C@@H](CCCCN)C(=O)N[C@@H](CCC(N)=O)C(=O)N[C@@H](CCCCN)C(=O)N[C@@H](CCCCN)C(=O)N[C@@H](CCCCN)C(=O)N[C@@H](CCC(=O)O)C(=O)N[C@@H](Cc2c[nH]c3ccccc23)C(=O)N[C@@H](CCCCN)C(=O)N[C@@H](C)C(=O)NCC(=O)N[C@@H](Cc2c[nH]cn2)C(=O)O)NC(=O)[C@H](C)NC(=O)[C@H](CCCCN)NC(=O)[C@H](Cc2ccccc2)NC(=O)[C@H](C(C)C)NC(=O)[C@H](CO)NC(=O)[C@H](CO)NC(=O)[C@H](Cc2c[nH]cn2)NC(=O)[C@H](Cc2ccc(O)cc2)NC(=O)[C@H](C)NC(=O)[C@H](CCC(N)=O)NC(=O)[C@H](CCCNC(=N)N)NC(=O)[C@H](C)NC1=O` [compound 27] (H-CDATCQFRKAIDDCARQAYHSSVFKACMKQKKKEWKAGH-OH; disulfide 1-5, 14-27), the IC50 in assay [1] and in assay [2] was 0.01 to 1 nM in each case.

With “CDATCQFRKAIDDCARQAHHSNVPGSVFKACMKQKKKEYKAGH (disulfide 1-5, 14-31) [compound 10]”, the 50% inhibitory concentration (IC50) in assay [1] and in assay [2] was 0.01 to 1 nM in each case.

As for “CDATCQFRKAIDDCARQAHHSQVPGSVFKACMKQKKKEWKAGH (disulfide 1-5, 14-31) [compound 22]”, the IC50 in assay [1] and in assay [2] was 0.01 to 1 nM each time.

On to “CDATCQFRKAIDDCAKQAHHSNVPGSVFKSCMKQKKKEFKAG-NH2 (disulfide 1-5, 14-31) [compound 31]”, for which the half-maximal inhibitory concentration (IC50) is under 0.01 nM in assay [1] and 0.01 to 1 nM in assay [2].

In the case of “CDATCQFRKAIDDCARQAHHANVPGSVFKACMKQKKKEWKAGH (disulfide 1-5, 14-31) [compound 8]”, the IC50 in assay [1] and in assay [2] was 0.01 to 1 nM each time.

For “CDATCQFRKAIDDCHLLAWHANVPGSVFKACMKQKKKEFKAG-NH2 (disulfide 1-5, 14-31) [compound 140]”, the half-maximal inhibitory concentration (IC50) in assay [1] and in assay [2] was 0.01 to 1 nM each time.

As for “CDATCQFRKAIDDCMWYSRHSNVPGSVFKACMKQKKKEFKAG-NH2 (disulfide 1-5, 14-31) [compound 121]”, the IC50 in assay [1] and in assay [2] was 0.01 to 1 nM each time.

Turning to `CC[C@H](C)[C@H](NC(=O)[C@H](C)NC(=O)[C@H](CCCCN)NC(=O)[C@H](CCCNC(=N)N)NC(=O)[C@H](Cc1ccccc1)NC(=O)[C@H](CCC(N)=O)NC(=O)[C@@H]1CSSC[C@H](N)C(=O)N[C@@H](CC(=O)O)C(=O)N[C@@H](C)C(=O)N[C@@H]([C@@H](C)O)C(=O)N1)C(=O)N[C@@H](CC(=O)O)C(=O)N[C@@H](CC(=O)O)C(=O)N[C@H]1CSSC[C@@H](C(=O)N[C@@H](CCSC)C(=O)N[C@@H](CCCCN)C(=O)N[C@@H](CCC(N)=O)C(=O)N[C@@H](CCCCN)C(=O)N[C@@H](CCCCN)C(=O)N[C@@H](CCCCN)C(=O)N[C@@H](CCC(=O)O)C(=O)N[C@@H](Cc2c[nH]c3ccccc23)C(=O)N[C@@H](CCCCN)C(=O)N[C@@H](C)C(=O)NCC(N)=O)NC(=O)[C@H](C)NC(=O)[C@H](CCCCN)NC(=O)[C@H](Cc2ccccc2)NC(=O)[C@H](C(C)C)NC(=O)[C@H](CO)NC(=O)[C@H](CO)NC(=O)[C@H](Cc2c[nH]cn2)NC(=O)[C@H](Cc2c[nH]cn2)NC(=O)[C@H](C)NC(=O)[C@H](CCC(N)=O)NC(=O)[C@H](CCCNC(=N)N)NC(=O)[C@H](CC(=O)O)NC1=O` [compound 16] (H-CDATCQFRKAIDDCDRQAHHSSVFKACMKQKKKEWKAG-NH2; disulfide 1-5, 14-27), the half-inhibitory concentration (IC50) in assay [1] and in assay [2] was 0.01 to 1 nM in each case.

As for “CDATCQFRKAIDDCARQAHHSNVPGSVFKSCMKQKKKEWKAGH (disulfide 1-5, 14-31) [compound 24]”, the IC50 in assay [1] and in assay [2] was 0.01 to 1 nM each time.

For the compound “CDATCQFRKAIDDCIFWAAHSNVPGSVFKACMKQKKKEFKAG-NH2 (disulfide 1-5, 14-31) [compound 123]”, the IC50 in assay [1] and in assay [2] was 0.01 to 1 nM each time.
